These results are taken from the METLIN SMRT retention time set (Domingo-Almenara et al. 2019).

Structures are written as SMILES.

A short description of the data set: gradient 5% acetonitrile 3 min, to 50% in 2 min, to 85% in 15 min, held 3 min, 100 µL/min. To be noted: column: Zorbax Extend-C18 2.1 x 50 mm; eluents: water / acetonitrile, 0.1% formic acid. The method in brief: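 Values are retention times taken from adduct peaks that software picked and an analyst inspected. The pure standards were run as mixtures of ~100 molecules on HPLC linked to a quadrupole time-of-flight mass spectrometer, in positive and negative ionization mode. A Zorbax Extend-C18 column (2.1 × 50 mm, 1.8 μm) was used at 100 μL/min with water and acetonitrile, each including 0.1% formic acid.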
As to `COc1ccc(S(=O)(=O)NCCc2cn(C)c3ncccc23)cc1Cl`, the RP-LC retention time worked out at 760 s.
To `CCc1ccc2c(c1)cc(S(=O)(=O)c1ccccc1)c(=O)n2CC(=O)N1CCCCC1` belongs 620 s; to `O=C(NCc1ccccc1F)c1ccc2c(c1)ncn2CCN1CCCC1`, 574 s; to `COc1cc(OC)cc(C(=O)N2CCN(c3cc(-c4cccs4)[nH]n3)CC2)c1`, 794 s.
For `CC12C(=O)N(c3nccs3)C(=O)C1(C)C1CCC2O1` (centres undefined) the value was 741 s.
To `O=C(Nc1ccc2c(c1)OCCO2)N1CCCC(Cn2cnc3cccnc32)C1` (centres undefined) belongs 637 s; to `Cc1sc2ccn(Cc3ccc(F)cc3)c(=O)c2c1C(=O)NC1CCCCC1`, 973 s.
Take `Cc1ccc(CNC(=O)c2sc(-c3cn(C)c4ncccc34)nc2C)cc1`: the RP-LC retention time came out at 784 s.
Take `COc1cccc(-n2c(=O)c(C(=O)Nc3cccc(Cl)c3)c(O)c3cccnc32)c1`: the RP-LC retention time came out at 1330 s.
Compound `CC(C)CCNC(=O)c1ccc2ncnc(N3CCCC3)c2c1` returned an RP-LC retention time of 635 s.
With `Cc1ccc(Cl)cc1-n1ncc2c(NCCN3CCOCC3)ncnc21`, the RP-LC retention time was determined as 629 s.
Consider `CCc1cc(=O)n(CC(=O)Nc2ccc(F)c(F)c2)c(N2CCOCC2)n1`, for which the RP-LC retention time was found to be 756 s.
For `CN(CCNC(=O)CCCn1c2ccccc2c2cnn(C)c(=O)c21)Cc1ccccc1` the value was 652 s.
For `O=C(c1cccc(Cl)c1)N1CCC2(CC1)OCC(C(=O)N1CCCC1)N2C(=O)c1cccc(F)c1` (centres undefined) the value was 765 s; for `O=C(Nc1ccc2nncn2c1)Nc1ccccc1Cl`, 718 s; for `Cc1ccc(CNc2nnc(-c3nc(C4CC4)no3)c3ccccc23)cc1`, 958 s.
For `O=S(=O)(NC1CCCCCC1)c1cc(-c2cc(C(F)(F)F)on2)cs1` the value was 1200 s; for `CCc1ccc2ncc(C#N)c(N3CCC(C(=O)NCc4ccc(F)cc4)CC3)c2c1`, 710 s; for `CCOc1nc2ccccc2nc1N1CCCC(C(=O)NC2CCCCC2)C1` (centres undefined), 1170 s.
`Cc1sc(-c2noc(C(C)C)n2)cc1S(=O)(=O)N1CCC(C(=O)N(C)Cc2ccco2)CC1`: the RP-LC retention time is 1070 s.
To `N#CCSc1nnc2sc3ccccc3n12` belongs 671 s; to `Cc1nn(C)c(C)c1S(=O)(=O)N1CCc2nn(Cc3ccccc3)c(=O)n2CC1`, 714 s; to `COc1ccc(N2CC(c3noc(-c4ccc(C)c(C)c4)n3)CC2=O)cc1` (centres undefined), 1030 s.
To `Cn1ccc2cc(CCC(=O)N3CCN(c4ccc(Cl)cc4)CC3)ccc21` belongs 1050 s; to `O=C(c1ccc2ccnc(N3CCN(c4ccccc4)CC3)c2c1)N1CCN(C2CCCCC2)CC1`, 625 s.
To `O=C(NCc1csc(-c2ccccc2)n1)C1CCN(S(=O)(=O)c2ccccc2F)CC1` belongs 914 s; to `O=C1CCN(C(=O)C2CCN(C(=O)NC3CCCCC3)CC2)CCCCCCN1`, 664 s; to `COc1cc(OC)cc(N2C=C(C#N)S(=O)(=O)c3c(F)cccc32)c1`, 906 s.
`COc1ncc(C(=O)N2CCc3ccccc3C2)cn1` came in with an RP-LC retention time of 729 s.
For `CN(CCNC(=O)c1ccc2[nH]c3c(c2c1)CN(C(=O)C1CCC1)CC3)C1CCCCC1` the value was 646 s; for `COc1ccc(CNC(=O)NCC2(c3ccc(F)cc3)CC2)cc1`, 817 s.
Regarding `CCOc1ccc(-n2c(=O)c3sccc3n(Cc3nc(-c4ccc(C)c(C)c4)no3)c2=O)cc1`, the RP-LC retention time is 1130 s.
For `CCCCNC(=O)C1CCC(=O)N(c2ccc(OC)cc2)C1c1ccc(OC)c(OC)c1` (centres undefined) the value was 658 s; for `CCC(=O)Nc1nc(-c2ccc(C(C)C)cc2)cs1`, 1000 s.
As for `CCOC(=O)N1CCN(c2cc(C(=O)O)c3cc(NC(=O)c4cccc(C)c4)ccc3n2)CC1`, the RP-LC retention time worked out at 649 s.
For `CCC(=O)NCc1nc2c(n1CC)CN(C(=O)c1cc(C)cc(C)c1)CC2` the value was 620 s.
For `Cc1cc(-c2nnc(C3CC3)o2)c(C)n1CC(=O)NCc1ccc(F)c(Cl)c1` the value was 848 s.
`Cc1ccsc1C(=O)Nc1ccc(N2CCN(Cc3ccccc3)C2=O)nc1` yielded an RP-LC retention time of 834 s.
For `CCCCCC(=O)Nc1cc(-c2nc3ccccc3[nH]2)ccc1C`, the RP-LC retention time worked out at 712 s.
To `CCc1ccc(S(=O)(=O)N(C)CC2CCOCC2)cc1` belongs 911 s.
For `Cc1nc2cc(-c3noc(-c4ccc5c(c4)OCO5)n3)ccc2o1` the value was 1050 s.
For `CCn1ccc2c(cc(C(=O)NCc3ccc4c(c3)OCO4)n2C)c1=O` the value was 676 s; for `CCCn1cc(CCNS(=O)(=O)c2ccc3c(c2)CCCC3)c2cccnc21`, 1030 s.
`O=C(NCCN1CCOCC1)c1ccc(-c2ccc(N3CCCCCC3)nc2)cc1`: the RP-LC retention time worked out at 566 s.
In turn, `CC1=NS(=O)(=O)N(C)C=C1C(=O)OCc1noc(-c2ccccc2F)n1` had an RP-LC retention time of 914 s.
To `O=C(Nc1cccc(-c2ccc(N3CCOCC3)nn2)c1)Nc1ccc(F)c(Cl)c1` belongs 770 s.
To `O=C(NCC1(c2ccccc2)CCOCC1)c1c(F)cccc1Cl` belongs 769 s; to `Cn1c(=O)c(C(=O)N2CCN(c3ccccn3)CC2)nn(-c2ccc(F)cc2)c1=O`, 622 s.
To `COC(=O)c1cc(OC)c(OC)cc1NC(=O)c1ccc(CSc2ccccc2)o1` belongs 1070 s.
Turning to `O=C(Nc1ccc(OCc2nnc(-c3ccc(Cl)cc3)o2)cc1)c1ccoc1`, the RP-LC retention time was 942 s.
The compound `COc1ccc(CN2C=C(C(=O)OCc3noc(-c4ccc(C)c(C)c4)n3)C(C)=NS2(=O)=O)cc1` had an RP-LC retention time of 1230 s.
To `CC(C)CC(=O)N1CC(F)(F)C[C@H]1c1nnc(-c2cnccn2)o1` belongs 703 s; to `Cc1ccc(CNC(=O)Cn2c(C)nc3onc(C)c3c2=O)cc1`, 764 s.
The compound `O=C(Cn1cnc2c(sc3nc(-c4ccccc4)ccc32)c1=O)Nc1ccc(F)cc1Cl` came in with an RP-LC retention time of 1050 s.
To `O=C(Cn1cnc2nc(N3CCC(C(=O)NC4CC4)CC3)sc2c1=O)NC1CCCC1` belongs 609 s; to `COc1ccc(Nc2c(C(=O)N3CCC(C)CC3)cnc3nc(C)ccc23)cc1`, 638 s; to `Cc1nc(-c2csc(S(=O)(=O)N3CCC(C(=O)NCCc4ccccc4)CC3)c2)no1`, 1060 s.
To `O=C1NCCCCCCN(C(=O)Nc2ccc3c(c2)OCCO3)[C@H]2CCCC[C@@H]12` belongs 808 s.
To `CCOc1ccc(N2CC(c3nc(-c4ccc5c(c4)OCO5)no3)CC2=O)cc1` (centres undefined) belongs 982 s.
`CCOC(=O)N1CCC(NS(=O)(=O)C2CC2)CC1` registered an RP-LC retention time of 632 s.
For `Cc1ccc(-c2nnc(-c3nn(C)c4c3CN(S(=O)(=O)c3ccc(Cl)cc3)CC4)o2)cc1`, the RP-LC retention time stood at 1070 s.
For `CCCNC(=O)C1CCN(c2ccc(SCC(=O)Nc3cccc(SC)c3)nn2)CC1` the value was 677 s.
For `Cc1ccc(NC(=O)N2CCc3c(c(-c4nc(C)no4)nn3C)C2)c(C)c1` the value was 762 s; for `CCC1CCCCN1C(=O)c1cnc2nc(C)ccc2c1Nc1cccc(SC)c1` (centres undefined), 713 s.
Consider `O=C(Nc1ccc(SCc2nnc(-c3ccccc3)o2)cc1)c1ccc(Br)o1`, for which the RP-LC retention time came to 1010 s.
To `O=C(CSc1nnc(C2COc3ccccc3O2)o1)NCc1ccco1` (centres undefined) belongs 648 s.
To `O=C(Nc1ccc(F)c(Cl)c1)C1CCN(C(=O)c2ncn3c2COC(c2ccccc2)C3)CC1` (centres undefined) belongs 864 s.
For `CCc1ccccc1NS(=O)(=O)c1cc2n(c1)CCN(CC)C2=O` the value was 771 s; for `COCCOC(=O)c1c(C)oc2ccc(OC(=O)N(C)C)cc12`, 830 s; for `Cc1ccc(-c2noc(-c3ccccc3S(=O)(=O)NCCN3CCC(C)CC3)n2)cc1`, 771 s.
As to `O=C(CCS(=O)(=O)c1ccccc1)NCc1ccsc1`, the RP-LC retention time was 671 s.
`O=C(C1CCN(c2nc3ccc(-c4cccnc4)nc3s2)CC1)N1CCCCC1` had an RP-LC retention time of 652 s.
Turning to `COC(=O)c1ccc(NC(=O)N(C)CCc2noc(C3CCCCC3)n2)cc1`, the RP-LC retention time was determined as 906 s.
For `CCn1cnc(S(=O)(=O)N2CCCC(C(=O)Nc3cccc(C)c3C)C2)c1` (centres undefined) the value was 754 s; for `Cc1nn(C)c(=O)c2cc(S(=O)(=O)NCc3ccc(Cl)cc3)cn12`, 822 s; for `COc1ccc(-n2ccnc(NC(=O)Nc3ccccc3)c2=O)cc1OC`, 829 s.
To `O=C(O)CCC1CCN(c2cc(NC3CC3)ncn2)CC1` belongs 587 s; to `CCc1nc2cc(-c3noc(C4CC(=O)N(c5ccc(C)cc5)C4)n3)ccc2o1` (centres undefined), 987 s; to `COc1ccc(NC(=O)CC(C)=O)c(OC)c1`, 649 s.
